{"source": "patent US20080051646A1", "about": "“Probe for cellular oxygen” (priority 2006, published 2008)", "type_in_all_cases": "cell-based", "key": {"Jurkat T cells": {"system": "Jurkat T cells", "assay": "Lifetime of cell-surface-bound WGA-PtCP probe on Victor2 time resolved reader", "conditions": "Jurkat cells loaded with WGA-PtCP probe; 1 μM; basal 25 μs", "protocol": "Wheat germ agglutinin (WGA) at 1 mg/ml concentration in 0.1 M Na carbonate, pH 8.6 was labelled with the PtCP-NCS dye using a 20-molar excess of dye. After two hours of incubation at room temperature, the resulting conjugate was separated from the free dye as described in example 1 above. Jurkat T cells and human B cells were incubated with WGA-PtCP probe at 1 μM concentration for 30 min at 37° C. in RPMI medium, to achieve binding of the probe to glycoproteins on cell surface. After washing of loaded cells with medium, local oxygen concentration (at cell surface and within the cell) was assessed. and responses to effectors of respiration such as 1 μM FCCP were measured. Lifetimes of the cells loaded with WGA-PtCP probe was measured on a time resolved fluorescent reader Victor^2, using excitation at 340 nm excitation and 642 nm emission filters, and pairwise intensity readings at delay times 30 and 70 μs (at gate time 100 μs). Basal lifetime of resting Jurkat cells was recorded as 25 μs, moving to 32 μs upon the addition of FCCP (uncoupler of respiration). Under the same conditions, using the PtCP-BSA conjugate which had no ability to bind to the cells and remained in extracellular medium, intracellular oxygen gradients and responses to effectors were undetectable."}, "A549 cells": {"system": "A549 cells", "assay": "Intracellular oxygen imaging of loaded cells treated with effector compounds", "protocol": "(§1) Loading of the cells with the PtCPK-BSA and PdCPK-BSA based probes (as described in Example 2) was carried out in the same way as described in Example 3 for the PtCP-BSA probes (i.e. 5 h in serum-free medium for the Escort or 24 h in serum-rich medium for Endoporter). A549 and HeLa cells loaded with PtCPK-BSA and PdCPK-BSA probes were then washed and analyzed by fluorescence microscopy. Imaging experiments of cells loaded with the probes were carried out on an Olympus IX51 inverted fluorescence microscope equipped with 75 W Xenon Arc Lamp (Cairn), an Optoscan Monochromator (Cairn) and an Orca-ER CCD camera (Hamamatsu). Live cell imaging was carried out using an Olympus UplanFl 1.3 NA 100× oil-immersion objective. The images were analysed using Kinetic Imaging AQM Advanced software (Version 6). The PtCPK and PdCPK probes were imaged under excitation at wavelengths of 395 nm and 400 nm respectively collecting the phosphorescence emission using a 600 nm cut-off filter.\n(§2) Adherent A549, HeLa and SH-SY5Y cells were grown under normal conditions. Cells were loaded with probes based on PtCPK-BSA and PdCPK-BSA and Escort III (described in Example 2), and treated with various effector compounds with known mechanisms of action on cell metabolism and cellular response to the effector compounds was observed under a fluorescent microscope.\nThe effect of Ca-channel agonist ryanodine (20 nM) on SH-SY5Y cells, with up-regulation of cell metabolism by inducing a release of Ca2+ from intracellular stores, is shown in FIG. 4. […] An approximately 40% drop in PtCPK phosphorescence was observed as the base rate of respiration was inhibited resulting in higher levels of intracellular oxygen emanating from O2 influx from the extracellular medium.\nThe specificity of the CMC response was confirmed by incubating A549 cells with an equimolar concentration of the ryanodine channel blocker procaine followed by CMC treatment. In this case, phosphorescence intensity increased by less than 10% after the introduction of CMC."}, "PC12 cells": {"system": "PC12 cells", "assay": "Mitochondria-targeted probes in loaded cells on the Victor reader", "protocol": "The PtCP-BSA conjugate, synthesized as described in Example 1 was additionally labelled with a synthetic oligopeptide containing the following sequence: […]. The peptide comprises a mitochondria targeting sequence (according to http://psort.ims.u-tokyo.ac.jp), a terminal cysteine group was used for the conjugation. Labelling with the peptide was achieved by means of a heterobifunctional reagent—succinimide ester of maleimidopropionic acid. The PtCP-BSA conjugate was incubated with 10-molar excess of the reagent in 0.1 M phosphate buffer, pH 7.8 for 4 hours at room temperature, then separated on a PD-10 column in the same buffer. The peak of activated PtCP-BSA was collected, mixed with 10-molar excess of the peptide, incubated for further 6 hours. Finally, the PtCP-BSA-peptide conjugate was separated on a PD-10 column.\nAlternatively, the peptide was conjugated directly to PtCP. The monofunctional maleimide derivative of PtCP was used, which reacts spontaneously with —SH groups on the peptide (terminal cysteins) to form stable covalent linkage. […]\nProbes incorporating the PtCP-BSA-peptide and PtCP-peptide conjugates (successful labelling was confirmed by MALDI mass spectrometry) were formulated with Endoporter agent and used for cell loading as described in Examples 3 to 8. PC12 cells loaded with these probes produced high signals on the Victor reader."}, "HeLa cells": {"system": "HeLa cells", "assay": "Intracellular oxygen imaging of loaded cells treated with valinomycin", "conditions": "HeLa cells loaded with PtCPK-BSA or PdCPK-BSA; 1 μM", "protocol": "as §1\nas §2, with “microscope. […]” for “microscope.”"}, "Jurkat T-cells": {"system": "Jurkat T-cells", "assay": "Phosphorescence lifetime of PtCP-BSA probe in Jurkat cells on a fluorescent lifetime spectrometer", "conditions": "for change in intracellular probe phosphorescence lifetime after effector: Jurkat cells loaded with PtCP-BSA-Escort III probe, 1 μM, three minute intervals", "description": "Jurkat T-cells were grown in RPMI medium supplemented with 10% FBS, 2 mM L-glutamine, 100 U/ml penicillin and 100 μg/ml streptomycin.\nFor loading, the PtCP-BSA based probe comprising PtCP-BSA conjugate formulated with Escort III (described in Example 1) was used. Probe solution was pre-warmed by incubating at 37° C for 15 min followed by addition of 100 μl of the probe solution to the cell culture dish containing 800 μl of serum free medium. The cells and probe solution were incubated for 5 hours in a 5% CO2 incubator at 37° C., cells were then washed with 1 ml of serum free medium three times.\nLoading of the cells loaded with the PtCP-based probe(s) was initially assessed by measurement on a fluorescent lifetime spectrometer Cary Eclipse (Varian), both in the intracellular environment (i.e. after loading and washing of the cells) and in the extracellular medium (at the start of loading, no washing). […] The inhibitor blocks oxygen consumption and adjusts intracellular oxygen levels to air-saturated levels.\nJurkat T-cell lymphoma cells were grown under normal conditions and loaded with the PtCP-BSA-Escort III based probe (as described in Example 1) using the method described in Example 3. Following washing the basal level of intracellular oxygen was assessed by measuring the phosphorescence lifetime of the PtCP probe using a Cary Eclipse spectrofluorometer and analyzing phosphorescence decays using Origin™ software (single-exponential fits). Phosphorescence lifetimes of the intracellular probe in loaded cells were measured at three minute intervals following the addition of 1 μM valinomycin."}}, "note": "Where no end group is shown, it is not given here. PtCP = not defined here", "data": [{"compound": "N#CC(C#N)=NNc1ccc(OC(F)(F)F)cc1", "note": "[FCCP]", "values": [{"measurement": "lifetime upon addition of uncoupler", "setting": "Jurkat T cells", "result": 32, "unit": "μs"}]}, {"compound": "ryanodine", "values": [{"measurement": "response of loaded cells, lower concentrations", "setting": "A549 cells; A549 cells loaded with PtCPK, 2 nM and 20 nM", "result": "increased phosphorescence"}, {"measurement": "response of loaded cells, higher concentrations", "setting": "A549 cells; A549 cells loaded with PtCPK, 200 nM and 2 μM", "result": "little oxygen uptake"}]}, {"compound": "PtCP-peptide: PtCP-maleimide conjugated directly to peptide VLTPLLLRGLTGSARRLPVPRAKAC (VLTPLLLRGLTGSARRLPVPRAKAC(PtCP); reading uncertain)", "values": [{"measurement": "signals of loaded cells on the Victor reader", "setting": "PC12 cells; formulated with Endoporter", "result": "high signals"}, {"measurement": "phosphorescence lifetimes of resting loaded cells compared with PtCP-BSA probe", "setting": "PC12 cells; resting", "result": "higher"}]}, {"compound": "CC(C)[C@@H]1NC(=O)[C@H](C)OC(=O)[C@@H](C(C)C)NC(=O)[C@@H](C(C)C)OC(=O)[C@H](C(C)C)NC(=O)[C@H](C)OC(=O)[C@@H](C(C)C)NC(=O)[C@@H](C(C)C)OC(=O)[C@H](C(C)C)NC(=O)[C@H](C)OC(=O)[C@@H](C(C)C)NC(=O)[C@@H](C(C)C)OC1=O", "note": "[valinomycin]", "values": [{"measurement": "phosphorescence response to effector", "setting": "HeLa cells", "result": "rapid and cell specific"}, {"measurement": "phosphorescence response to effector", "setting": "A549 cells; A549 cells loaded with PtCPK-BSA or PdCPK-BSA, 1 μM", "result": "rapid and cell specific"}, {"measurement": "change in intracellular probe phosphorescence lifetime after effector", "setting": "Jurkat T-cells", "result": "increase in probe lifetime was significantly faster than in a control sample"}]}, {"compound": "Cc1cc(O)ccc1Cl", "note": "[CMC, 4-chloro-meta-cresol]", "values": [{"measurement": "increase of phosphorescence intensity", "setting": "A549 cells; A549 cells pre-incubated with equimolar procaine, then 500 μM CMC", "result": "less than 10%"}, {"measurement": "effect on the phosphorescence", "setting": "A549 cells; respiring A549 cells loaded with PtCPK-BSA, 500 μM", "result": "pronounced effect"}]}, {"compound": "antimycin A", "values": [{"measurement": "drop in PtCPK phosphorescence", "setting": "A549 cells; A549 cells loaded with PtCPK-BSA/Escort III, 2 μM", "result": "approximately 40%"}, {"measurement": "probe lifetime after addition of inhibitor", "setting": "Jurkat T-cells; Jurkat cells loaded with PtCP-BSA probe, basal 31 μs, lifetime decreases and levels off", "result": "~25", "unit": "μs"}, {"measurement": "change in intracellular probe phosphorescence lifetime after effector", "setting": "Jurkat T-cells", "result": "slight drop"}]}]}
